Reference: ChEMBL document CHEMBL5154691, “Discovery of novel verinurad analogs as dual inhibitors of URAT1 and GLUT9 with improved Druggability for the treatment of hyperuricemia” (Eur J Med Chem, 2022)

Experiments:
[1] = molecular target: T1, Solute carrier family 22 member 12 (Homo sapiens, UniProt Q96S37); test: Inhibition of URAT1 (unknown origin)-mediated 14C-uric acid uptake expressed in HEK293 cells using 14C-uric acid as substrate preincubated for 30 mins followed by substrate addition and measured after 15 mins by liquid scintillation counting analysis; type: cell-based
T1 sequence (Q96S37 whole entry): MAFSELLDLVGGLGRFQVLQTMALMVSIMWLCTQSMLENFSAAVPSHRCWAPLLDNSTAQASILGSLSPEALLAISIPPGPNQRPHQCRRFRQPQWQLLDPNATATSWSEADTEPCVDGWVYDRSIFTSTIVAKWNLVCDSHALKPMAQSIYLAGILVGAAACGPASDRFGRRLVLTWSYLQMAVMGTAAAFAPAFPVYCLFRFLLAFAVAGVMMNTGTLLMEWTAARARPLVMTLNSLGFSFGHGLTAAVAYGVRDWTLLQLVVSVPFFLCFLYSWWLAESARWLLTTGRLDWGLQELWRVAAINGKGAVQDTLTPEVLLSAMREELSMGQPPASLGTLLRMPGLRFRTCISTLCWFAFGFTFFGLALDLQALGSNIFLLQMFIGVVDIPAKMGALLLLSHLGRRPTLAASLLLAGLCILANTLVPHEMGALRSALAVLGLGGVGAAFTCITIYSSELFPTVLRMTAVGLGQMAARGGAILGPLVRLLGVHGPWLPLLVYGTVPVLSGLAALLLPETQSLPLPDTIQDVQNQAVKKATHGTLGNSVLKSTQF

[2] = molecular target: T2, Solute carrier family 2, facilitated glucose transporter member 9 (Homo sapiens) (UniProt Q9NRM0); test: Inhibition of GLUT9 (unknown origin) expressed in HEK293T cells assessed as inhibition of uric acid-induced current at 10 uM by whole cell patch clamp technique; type: cell-based
T2 sequence (whole entry): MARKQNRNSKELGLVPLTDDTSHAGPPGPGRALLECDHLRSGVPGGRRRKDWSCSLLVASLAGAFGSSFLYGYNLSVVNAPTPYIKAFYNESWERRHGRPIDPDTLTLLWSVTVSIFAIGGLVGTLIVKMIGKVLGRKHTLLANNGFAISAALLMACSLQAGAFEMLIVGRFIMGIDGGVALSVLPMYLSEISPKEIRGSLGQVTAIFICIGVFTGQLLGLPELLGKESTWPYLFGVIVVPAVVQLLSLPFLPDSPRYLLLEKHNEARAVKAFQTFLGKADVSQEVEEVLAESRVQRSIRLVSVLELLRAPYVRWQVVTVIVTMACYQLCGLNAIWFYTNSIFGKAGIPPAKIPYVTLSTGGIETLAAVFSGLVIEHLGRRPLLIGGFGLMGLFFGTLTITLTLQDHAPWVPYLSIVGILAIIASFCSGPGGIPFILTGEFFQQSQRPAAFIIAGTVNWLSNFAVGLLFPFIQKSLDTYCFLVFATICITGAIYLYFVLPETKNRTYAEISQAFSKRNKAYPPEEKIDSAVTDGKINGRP

[3] = molecular target: T3, Broad substrate specificity ATP-binding cassette transporter ABCG2 (Homo sapiens, UniProt Q9UNQ0); test: Inhibition of ABCG2 (unknown origin) expressed in HEK293 cells membrane vesicles assessed as inhibition of ATP-induced 14C-uric acid uptake preincubated for 15 mins followed by incubation with ATP and substrate for 5 mins by liquid scintillation counting analysis; type: toxicity, cell membranes, Membrane vesicle
T3 sequence (Q9UNQ0 whole entry): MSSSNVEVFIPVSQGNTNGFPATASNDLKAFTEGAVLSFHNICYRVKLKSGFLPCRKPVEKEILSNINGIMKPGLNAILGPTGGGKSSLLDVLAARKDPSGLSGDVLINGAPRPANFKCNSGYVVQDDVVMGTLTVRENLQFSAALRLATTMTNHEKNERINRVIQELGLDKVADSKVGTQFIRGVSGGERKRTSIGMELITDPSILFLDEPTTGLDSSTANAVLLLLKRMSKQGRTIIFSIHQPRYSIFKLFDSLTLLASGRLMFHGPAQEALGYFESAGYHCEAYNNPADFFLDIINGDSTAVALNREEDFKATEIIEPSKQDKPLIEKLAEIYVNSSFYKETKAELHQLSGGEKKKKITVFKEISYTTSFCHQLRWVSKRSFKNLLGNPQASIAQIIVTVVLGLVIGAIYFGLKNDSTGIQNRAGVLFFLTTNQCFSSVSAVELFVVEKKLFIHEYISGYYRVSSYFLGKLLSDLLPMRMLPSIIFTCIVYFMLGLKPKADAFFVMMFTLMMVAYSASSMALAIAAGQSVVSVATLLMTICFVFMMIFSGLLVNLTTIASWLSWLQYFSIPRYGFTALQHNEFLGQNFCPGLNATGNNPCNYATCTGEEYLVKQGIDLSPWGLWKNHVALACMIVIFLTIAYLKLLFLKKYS

[4] = molecular target: T4, Solute carrier family 22 member 6 (Homo sapiens, UniProt Q4U2R8); test: Inhibition of OAT1 (unknown origin) expressed in HEK293 cells assessed as inhibition of 6-CFL uptake preincubated for 30 mins followed by incubation with 6-CFL and measured after 15 mins by fluorescence based analysis; type: toxicity, cell-based
T4 sequence (Q4U2R8 whole entry): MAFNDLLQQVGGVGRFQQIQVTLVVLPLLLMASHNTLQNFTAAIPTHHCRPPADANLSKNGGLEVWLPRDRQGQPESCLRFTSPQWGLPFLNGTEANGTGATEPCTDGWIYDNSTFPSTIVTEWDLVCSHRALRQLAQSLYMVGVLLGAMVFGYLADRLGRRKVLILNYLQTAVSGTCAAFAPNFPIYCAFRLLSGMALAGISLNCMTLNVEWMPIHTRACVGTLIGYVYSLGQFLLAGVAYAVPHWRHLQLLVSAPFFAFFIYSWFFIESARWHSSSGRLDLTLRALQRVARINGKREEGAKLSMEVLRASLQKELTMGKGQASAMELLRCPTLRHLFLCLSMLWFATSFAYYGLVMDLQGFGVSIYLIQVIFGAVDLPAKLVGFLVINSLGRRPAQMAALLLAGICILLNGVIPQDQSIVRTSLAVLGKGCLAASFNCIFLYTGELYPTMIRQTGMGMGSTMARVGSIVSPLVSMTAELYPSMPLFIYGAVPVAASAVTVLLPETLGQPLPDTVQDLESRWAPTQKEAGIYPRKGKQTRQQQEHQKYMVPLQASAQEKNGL

| IC50 [1] | Structure (SMILES) | also measured |
| --- | --- | --- |
| 4.25 µM | COc1ccc(Sc2ccncc2Nc2ccc(C#N)c3ccccc23)c(CC(=O)O)c1 | – |
| 6.97 µM | N#Cc1ccc(Oc2cnccc2SCC(=O)O)c2ccccc12 | – |
| 2.55 µM | N#Cc1ccc(Nc2cnccc2SCc2ccc(C(=O)O)cc2)c2ccccc12 | – |
| 4.57 µM | CN(c1cnccc1SCc1ccc(-c2ccccc2C(=O)O)cc1)c1ccc(C#N)c2ccccc12 | – |
| 5.21 µM | CC(C)(Sc1ccncc1Oc1ccc(C#N)c2ccccc12)C(=O)O | – |
| 3.78 µM | N#Cc1ccc(Oc2cnccc2SCCCCCCC(=O)O)c2ccccc12 | – |
| 4.68 µM | N#Cc1ccc(Nc2cnccc2SCc2ccc(-c3ccccc3C(=O)O)cc2)c2ccccc12 | – |
| 10.5 µM | N#Cc1ccc(Oc2cnccc2Sc2cccc([N+](=O)[O-])c2CC(=O)O)c2ccccc12 | – |
| 14.2 µM | COc1ccc(Sc2ccncc2Oc2ccc(C#N)c3ccccc23)c(CC(=O)O)c1 | – |
| 5.75 µM | N#Cc1ccc(Nc2cnccc2SCCCCCCC(=O)O)c2ccccc12 | – |
| 4.12 µM | N#Cc1ccc(Nc2cnccc2Sc2ccc(Br)cc2CC(=O)O)c2ccccc12 | – |
| 8.05 µM | N#Cc1ccc(Oc2cnccc2Sc2ccc(Br)cc2CC(=O)O)c2ccccc12 | – |
| 2.78 µM | N#Cc1ccc(Nc2cnccc2SCCCC(=O)O)c2ccccc12 | – |
| 1.66 µM | COc1cc(C(=O)O)ccc1CSc1ccncc1Nc1ccc(C#N)c2ccccc12 | – |
| 4.22 µM | N#Cc1ccc(Oc2cnccc2SCCCCC(=O)O)c2ccccc12 | – |
| 6.86 µM | N#Cc1ccc(Oc2cnccc2SCc2ccccc2C(=O)O)c2ccccc12 | – |
| 6.58 µM | N#Cc1ccc(Oc2cnccc2SCc2cccc(C(=O)O)c2)c2ccccc12 | – |
| 1.96 µM | N#Cc1ccc(Nc2cnccc2SCc2cccc(C(=O)O)c2)c2ccccc12 | – |
| 15.1 µM | N#Cc1ccc(Oc2cnccc2SCc2ccc(-c3ccccc3C(=O)O)cc2)c2ccccc12 | – |
| 3.44 µM | N#Cc1ccc(Nc2cnccc2Sc2cccc([N+](=O)[O-])c2CC(=O)O)c2ccccc12 | – |
| 10.2 µM | N#Cc1ccc(Oc2cnccc2SCc2ccc(C(=O)O)cc2)c2ccccc12 | – |
| 1.23 µM | N#Cc1ccc(Oc2cnccc2SCCCC(=O)O)c2ccccc12 | inhibition [2]: 15.2%; IC50 [3]: 27.9 µM; IC50 [4]: 41.3 µM |
| 0.46 µM | COc1cc(C(=O)O)ccc1CSc1ccncc1N(C)c1ccc(C#N)c2ccccc12 | inhibition [2]: 23.1%; IC50 [3]: 34.8 µM; IC50 [4]: 25.5 µM |
| 4.24 µM | N#Cc1ccc(Nc2cnccc2SCCCCCC(=O)O)c2ccccc12 | – |
| 2.28 µM | N#Cc1ccc(Nc2cnccc2SCCCCC(=O)O)c2ccccc12 | – |
| 4.74 µM | N#Cc1ccc(Oc2cnccc2SCCCCCC(=O)O)c2ccccc12 | – |
| 16.4 µM | COc1cc(C(=O)O)ccc1CSc1ccncc1Oc1ccc(C#N)c2ccccc12 | – |

| Structure (SMILES) | IC50 [1] | also measured |
| --- | --- | --- |
| CN(c1cnccc1SCCCCCCC(=O)O)c1ccc(C#N)c2ccccc12 | 4.64 µM | – |
| CN(c1cnccc1SCCCCCC(=O)O)c1ccc(C#N)c2ccccc12 | 3.76 µM | – |
| CN(c1cnccc1SCc1cccc(C(=O)O)c1)c1ccc(C#N)c2ccccc12 | 3.57 µM | – |
| CN(c1cnccc1SCCCC(=O)O)c1ccc(C#N)c2ccccc12 | 2.58 µM | – |
| CN(c1cnccc1SC(C)(C)C(=O)O)c1ccc(C#N)c2ccccc12 | 5.36 µM | – |
| CN(c1cnccc1SCCCCC(=O)O)c1ccc(C#N)c2ccccc12 | 3.58 µM | – |
| CN(c1cnccc1SCc1ccccc1C(=O)O)c1ccc(C#N)c2ccccc12 | 4.44 µM | – |
| CN(c1cnccc1SCc1ccc(C(=O)O)cc1)c1ccc(C#N)c2ccccc12 | 6.25 µM | – |
